Patent EP4772186A1, “USE AND COMPOSITION OF POSTBIOTIC OF LACTOBACILLUS PARACASEI ET-22” (Inner Mongolia Yili Industrial Group Co., Ltd., priority 2023, dated 2025)

System: volatile organic compounds (VOCs)
Assay: SPME-GC-MS of volatile organic compounds (VOCs) in saliva fermentation
Format: cell-based, halitosis subjects (saliva)
Experimental: Fresh saliva was collected from 10 halitosis subjects (Halimeter index >120). Subjects were required not to consume any food or drink for 2 hours before donating saliva. Saliva was directly spat into a saliva collection tube, 5 ml per person, and mixed. The mixture was centrifuged at 4500 rpm for 10 minutes, and the supernatant was collected, aliquoted, and stored at -80°C for subsequent experimental studies.
(§1) Lysate group: In a headspace vial, 100 µl of saliva was added first, followed by separate addition of ET-22 viable bacteria (1.0×10^9 CFU/ml), ET-22 heat-inactivated bacterial cells (obtained by inactivating viable bacteria at 1.0×10^9 CFU/ml), and lysate (obtained by inactivating and then filtering viable bacteria at 1.0×10^9 CFU/ml), each at 100µl. Then, 800 µl of SHI medium was added. After filling with nitrogen, anaerobic cultivation was performed for 10 hours for loading on machine, and then SPME-GC-MS was used to test the change in content of volatile organic compound.
as §1, with “NAD group:” for “Lysate group:”, “by the” for “by”, “by heat-inactivating” for “by inactivating”, “and NAD (100 µg/ml),” for “and lysate (obtained by inactivating and then filtering viable bacteria at 1.0×10^9 CFU/ml),”, “machine,” for “machine, and”, “the changes” for “the change”
2-hydroxy-3-phenylpropionic acid group: In a headspace vial, 100 µl of saliva was added first, followed by the separate addition of ET-22 viable bacteria (1.0×10^9 CFU/ml), ET-22 heat-inactivated bacterial cells (obtained by heat-inactivating viable bacteria at 1.0×10^9 CFU/ml), and 2-hydroxy-3-phenylpropionic acid (100 µg/ml), each at 100µl. […]
Helium was used as a carrier gas, with a rate remaining at 1.1 mL min-1. […] The flavor characteristic of each compound was determined based on data from the Good Scents Company Information System (http://www.thegoodscentscompany.com).

O=C(O)C(O)Cc1ccccc1 (stereo not drawn) [2-hydroxy-3-phenylpropionic acid]
significantly decreases: number of flavor-active acid compounds (among 71 aroma-active VOCs, 100 µg/ml) | number of flavor-active ester compounds (among 71 aroma-active VOCs, pure components 100 µg/ml, others from 1.0×10^9 CFU/ml) | number of alkane compounds (VOCs) (pure components 100 µg/ml, peptidoglycan from 1.0×10^9 CFU/ml, 10 hours)
